Assay type in all cases: biochemical
Test [1] addresses T1, DPP-IV (Homo sapiens, UniProt P27487).
T1 construct: DPP-IV activity from human colonic carcinoma cell extracts; endogenous in cells; host or cells: Caco-2 (ATCC HTB 37), differentiated to induce DPP-IV expression; nonidet-P40 extract
The test is described as follows: Caco-2 DPP-IV Assay (inhibition of DPP-IV activity from human colonic carcinoma cell extracts). The note with it: Caco-2 cell extract; substrate H-Alanine-Proline-pNA; pH 7.4; room temperature, 10 minutes. The source says: As indicated above, all of the compounds of formula I, and their corresponding pharmaceutically acceptable acid addition salts, are useful in inhibiting DPP-IV. […] The human colonic carcinoma cell line Caco-2 was obtained from the American Type Culture Collection (ATCC HTB 37). Differentiation of the cells to induce DPP-IV expression was accomplished as described by Reisher, et al. in an article entitled "Increased expression of . . . intestinal cell line Caco-2" in Proc. Natl. Acad. Sci., Vol. 90, pgs. 5757-5761 (1993). Cell extract is prepared from cells solubilized in 10 mM Tris-HCl, 0.15 M NaCl, 0.04 t.i.u. aprotinin, 0.5% nonidet-P40, pH 8.0, which is centrifuged at 35,000 g for 30 min. at 4° C. to remove cell debris. The assay is conducted by adding […] solubilized Caco-2 protein, diluted to a final volume of 125 mL in assay buffer (25 mM Tris-HCl pH 7.4, 140 mM NaCl, 10 mM KCl, 1% bovine serum albumin) to microtiter plate wells. The reaction is initiated by adding 25 mL of 1 mM substrate (H-Alanine-Proline-pNA; pNA is p-nitroaniline). The reaction is run at room temperature for 10 minutes after which time a 19 mL volume of 25% glacial acetic acid is added to stop the reaction. Test compounds are typically added as 30 mL additions and the assay buffer volume is reduced to 95 mL. A standard curve of free p-nitroaniline is generated using […] solutions of free pNA in assay buffer. The curve generated is linear and is used for interpolation of substrate consumption (catalytic activity in nmoles substrate cleaved/min). The endpoint is determined by measuring absorbance at 405 nm in a Molecular Devices UV Max microtiter plate reader. The potency of the test compounds as DPP-IV inhibitors, expressed as IC50, is calculated from 8-point, dose-response curves using a 4-parameter logistic function.

The target of test [2] is T2, human plasma DPP-IV (Homo sapiens, UniProt P27487).
T2 construct: DPP-IV activity in human and rat plasma; from tissue; host or cells: human plasma
T2 sequence (P27487 39-766 limits assumed): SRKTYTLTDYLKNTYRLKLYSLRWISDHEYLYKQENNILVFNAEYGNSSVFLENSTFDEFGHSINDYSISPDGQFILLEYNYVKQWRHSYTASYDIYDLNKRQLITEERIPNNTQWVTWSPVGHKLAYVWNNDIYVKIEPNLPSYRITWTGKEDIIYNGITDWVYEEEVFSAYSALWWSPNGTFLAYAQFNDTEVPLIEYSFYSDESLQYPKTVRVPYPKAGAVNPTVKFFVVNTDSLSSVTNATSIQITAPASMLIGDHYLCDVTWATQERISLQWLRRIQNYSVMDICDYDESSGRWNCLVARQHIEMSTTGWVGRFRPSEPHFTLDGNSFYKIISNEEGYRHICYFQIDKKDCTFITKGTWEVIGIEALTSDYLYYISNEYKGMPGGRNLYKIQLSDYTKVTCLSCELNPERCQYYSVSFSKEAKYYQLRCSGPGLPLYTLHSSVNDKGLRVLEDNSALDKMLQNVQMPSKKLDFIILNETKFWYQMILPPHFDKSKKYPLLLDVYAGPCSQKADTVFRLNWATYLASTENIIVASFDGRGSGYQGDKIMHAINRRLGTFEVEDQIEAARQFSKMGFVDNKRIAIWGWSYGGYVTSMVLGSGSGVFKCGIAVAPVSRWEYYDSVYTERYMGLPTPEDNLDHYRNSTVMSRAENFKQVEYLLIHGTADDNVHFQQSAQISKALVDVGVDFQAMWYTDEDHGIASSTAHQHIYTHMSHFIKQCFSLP
In words: Inhibition of DPP-IV activity in human plasma. To be noted: substrate H-Glycine-Proline-AMC, pH 7.8, room temperature, 20 min. Here is the method:
(§1) 192-197 (1992). Briefly, five […] are added to 96-well flat-bottom mictotiter plates (Falcon), followed by the addition of 5 mL of 80 mM MgCl2 in incubation buffer (25 mM HEPES, 140 mM NaCl, 1% RIA-grade BSA, pH 7.8). After a 5 min. incubation at room temperature, the reaction is initiated by the addition of 10 mL of incubation buffer containing 0.1 mM substrate (H-Glycine-Proline-AMC; AMC is 7-amino-4-methylcoumarin). The plates are covered with aluminum foil (or kept in the dark,) and incubated at room temperature for 20 min. After the 20 min. reaction, fluorescence is measured using a CytoFluor 2350 fluorimeter (Excitation 380 nm Emission 460 nm; sensitivity setting 4). Test compounds are typically added as 2 mL additions and the assay buffer volume is reduced to 13 mL. A fluorescence-concentration curve of free AMC is generated using […] solutions of AMC in assay buffer. The curve generated is linear and is used for interpolation of substrate consumption (catalytic activity in nmoles substrate cleaved/min). As with the previous assay, the potency of the test compounds as DPP-IV inhibitors, expressed as IC50, is calculated from 8-point, dose-response curves using a 4 parameter logistic function.

The target in test [3] is T3, rat plasma DPP-IV (Rattus norvegicus, UniProt P14740).
T3 construct: DPP-IV activity in human and rat plasma; from tissue; host or cells: rat plasma
T3 sequence (P14740 37-767 limits assumed): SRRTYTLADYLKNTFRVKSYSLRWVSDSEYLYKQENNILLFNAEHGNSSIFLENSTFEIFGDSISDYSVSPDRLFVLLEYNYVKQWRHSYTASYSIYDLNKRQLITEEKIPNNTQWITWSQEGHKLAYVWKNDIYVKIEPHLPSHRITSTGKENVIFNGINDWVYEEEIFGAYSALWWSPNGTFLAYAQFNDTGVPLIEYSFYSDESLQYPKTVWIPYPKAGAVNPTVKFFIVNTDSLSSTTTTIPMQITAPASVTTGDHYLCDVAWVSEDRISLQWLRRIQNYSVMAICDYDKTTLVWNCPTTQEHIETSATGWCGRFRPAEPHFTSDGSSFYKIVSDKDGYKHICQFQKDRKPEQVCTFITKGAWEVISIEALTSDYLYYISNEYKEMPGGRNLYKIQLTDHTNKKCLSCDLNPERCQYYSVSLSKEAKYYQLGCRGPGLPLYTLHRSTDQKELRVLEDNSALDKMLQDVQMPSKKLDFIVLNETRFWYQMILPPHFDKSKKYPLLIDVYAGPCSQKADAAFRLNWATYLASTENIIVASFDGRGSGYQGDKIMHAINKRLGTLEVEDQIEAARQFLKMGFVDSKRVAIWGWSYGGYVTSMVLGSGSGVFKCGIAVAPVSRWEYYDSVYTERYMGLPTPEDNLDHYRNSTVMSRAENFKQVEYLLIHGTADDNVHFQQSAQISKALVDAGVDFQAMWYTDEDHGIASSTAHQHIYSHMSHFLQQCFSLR
The test is described as follows: Inhibition of DPP-IV activity in rat plasma. To be noted: substrate H-Glycine-Proline-AMC, pH 7.8, room temperature, 20 min. As for the experimental part:
as §1

pIC50: −log10 of the molar value. Counter-ions that a name gives are not always drawn. Some results are limits rather than exact numbers.

T1 sequence (P27487 whole entry): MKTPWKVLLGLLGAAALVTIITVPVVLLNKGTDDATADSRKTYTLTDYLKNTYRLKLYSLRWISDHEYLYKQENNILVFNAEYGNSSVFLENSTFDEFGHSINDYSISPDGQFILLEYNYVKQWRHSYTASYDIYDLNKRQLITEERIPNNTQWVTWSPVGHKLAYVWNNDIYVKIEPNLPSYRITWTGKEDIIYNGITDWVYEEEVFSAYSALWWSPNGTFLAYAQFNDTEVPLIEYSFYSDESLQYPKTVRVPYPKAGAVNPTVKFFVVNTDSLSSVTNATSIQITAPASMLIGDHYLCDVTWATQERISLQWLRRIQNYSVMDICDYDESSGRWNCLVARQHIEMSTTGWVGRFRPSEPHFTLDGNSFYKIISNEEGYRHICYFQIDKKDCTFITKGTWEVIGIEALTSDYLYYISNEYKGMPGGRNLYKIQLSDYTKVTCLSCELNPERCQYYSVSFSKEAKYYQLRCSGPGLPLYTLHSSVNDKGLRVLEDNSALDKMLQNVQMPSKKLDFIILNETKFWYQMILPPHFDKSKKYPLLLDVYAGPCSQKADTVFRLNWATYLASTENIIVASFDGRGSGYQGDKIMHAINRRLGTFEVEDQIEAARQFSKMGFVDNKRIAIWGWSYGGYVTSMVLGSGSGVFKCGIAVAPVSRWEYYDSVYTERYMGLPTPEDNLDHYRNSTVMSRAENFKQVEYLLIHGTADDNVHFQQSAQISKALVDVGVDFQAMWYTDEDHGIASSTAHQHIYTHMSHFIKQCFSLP

As for `COc1cc2c(cc1OC)CC(C(=O)N1CCC[C@H]1C#N)NC2` (single isomer, unassigned; diastereomer b) [Ex. 7, 1-[1,2,3,4-tetrahydro-6,7-dimethoxy-3-isoquinolinyl]carbonyl-2-Pyrrolidinecarbonitrile [Diastereomer B]], the figures for the pIC50 in test [1], in test [2] and in test [3] were 7.89, 7.92 and 7.11, respectively.
With `N#C[C@@H]1CCCN1C(=O)[C@@H]1Cc2ccccc2CN1` [Ex. 1, [S-(R*,R*)]-1-(1,2,3,4-tetrahydro-3-isoquinolinyl)carbonyl-2-pyrrolidinecarbonitrile trifluoroacetate], the pIC50 is 8.12 in test [1], 7.39 in test [2] and 6.10 in test [3].
`N#C[C@@H]1CCCN1C(=O)[C@@H]1Cc2ccc(O)cc2CN1` [Ex. 2, [S-(R*,R*)]-1-(1,2,3,4-tetrahydro-7-hydroxy-3-isoquinolinyl)carbonyl-2-Pyrrolidinecarbonitrile trifluoroacetate] had a pIC50 in test [1] of 8.40.
`COc1ccc2c(c1)CN[C@H](C(=O)N1CCC[C@H]1C#N)C2` [Ex. 3, [S-(R*,R*)]-1-(1,2,3,4-tetrahydro-7-methoxy-3-isoquinolinyl)carbonyl-2-Pyrrolidinecarbonitrile trifluoroacetate]: the results for the pIC50 in test [1], in test [2] and in test [3] were 7.85, 8.40 and 7.80, respectively.
On the same counts, the results for `N#C[C@@H]1CCCN1C(=O)[C@@H]1Cc2ccc(OCc3ccccc3)cc2CN1` [Ex. 4, [S-(R*,R*)]-1-(1,2,3,4-tetrahydro-7-phenylmethoxy-3-isoquinolinyl)carbonyl-2-Pyrrolidinecarbonitrile trifluoroacetate] are 8.05, 6.78 and 5.89.
Turning to `CCCOc1ccc2c(c1)CN[C@H](C(=O)N1CCC[C@H]1C#N)C2` [Ex. 5, [S-(R*,R*)]-1-(1,2,3,4-tetrahydro-7-propoxy-3-isoquinolinyl)carbonyl-2-Pyrrolidinecarbonitrile trifluoroacetate], the pIC50 was 8.10 in test [1], 7.31 in test [2] and 6.50 in test [3].
On to `COc1cc2c(cc1OC)CC(C(=O)N1CCC[C@H]1C#N)NC2` (stereo partly drawn) [Ex. 6, [S-(R*,R*)]-1-[1,2,3,4-tetrahydro-6,7-dimethoxy-3-isoquinolinyl]carbonyl-2-Pyrrolidinecarbonitrile], for which, in test [1], the pIC50 was below 5.00.
On the same count and under the same terms, then `CCN(CC)CCCOc1ccc2c(c1)CNC(C(=O)N1CCCC1C#N)C2` (stereo not drawn) [Ex. 8, [S-(R*,R*)]-1-[7-(3-diethylamino)propoxy-1,2,3,4-tetrahydro-3-isoquinolinyl]carbonyl-2-Pyrrolidinecarbonitrile], with 8.00.
Same read-out and setting: then `CCOCCOCCOc1ccc2c(c1)CN[C@H](C(=O)N1CCC[C@H]1C#N)C2` [Ex. 9, [S-(R*,R*)]-1-[7-[2-(2-ethoxyethoxy)ethoxy]-1,2,3,4-tetrahydro-3-isoquinolinyl]carbonyl-2-Pyrrolidinecarbonitrile trifluoroacetate], with 8.00.
In the case of `N#C[C@@H]1CCCN1C(=O)[C@@H]1Cc2ccc(OCC(N)=O)cc2CN1` [Ex. 10, [S-(R*,R*)]-[3-(2-cyano-1-pyrrolidinyl)carbonyl-1,2,3,4-tetrahydro-7-isoquinolinyl]oxy-Acetamide], the values for the pIC50 in test [1], in test [2] and in test [3] were 7.80, 8.30 and 7.92, respectively.
In test [1], `N#C[C@@H]1CCCN1C(=O)[C@@H]1Cc2ccc(OCC(=O)O)cc2CN1` [Ex. 11, [S-(R*,R*)]-[3-(2-cyano-1-pyrrolidinyl)carbonyl-1,2,3,4-tetrahydro-7-isoquinolinyl]oxy-Acetic acid] showed a pIC50 of 8.00.
